SMILES strings stand for the structures. A value given as a limit tells only on which side of the number the result lay.

In experiment [1] the target is Human M3 receptor (Homo sapiens, UniProt P20309). Particulars: read-out: M3 binding affinity.
The target of experiment [2] is Human β2 adrenoceptor (Homo sapiens, UniProt P07550). Particulars: read-out: B2 binding affinity.
Sequence of Human β2 adrenoceptor (P07550 whole entry): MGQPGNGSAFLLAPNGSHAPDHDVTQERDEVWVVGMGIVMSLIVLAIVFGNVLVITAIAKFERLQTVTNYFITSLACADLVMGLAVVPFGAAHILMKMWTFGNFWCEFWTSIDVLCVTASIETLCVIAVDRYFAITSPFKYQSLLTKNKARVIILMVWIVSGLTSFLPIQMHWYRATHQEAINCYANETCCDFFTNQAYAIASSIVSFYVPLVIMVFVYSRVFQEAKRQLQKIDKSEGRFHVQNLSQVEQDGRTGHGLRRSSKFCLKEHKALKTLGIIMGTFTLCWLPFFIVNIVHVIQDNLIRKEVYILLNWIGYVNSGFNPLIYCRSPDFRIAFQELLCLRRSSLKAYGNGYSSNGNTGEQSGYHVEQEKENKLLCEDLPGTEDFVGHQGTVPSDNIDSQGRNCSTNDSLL

Sequence of Human M3 receptor (P20309 whole entry): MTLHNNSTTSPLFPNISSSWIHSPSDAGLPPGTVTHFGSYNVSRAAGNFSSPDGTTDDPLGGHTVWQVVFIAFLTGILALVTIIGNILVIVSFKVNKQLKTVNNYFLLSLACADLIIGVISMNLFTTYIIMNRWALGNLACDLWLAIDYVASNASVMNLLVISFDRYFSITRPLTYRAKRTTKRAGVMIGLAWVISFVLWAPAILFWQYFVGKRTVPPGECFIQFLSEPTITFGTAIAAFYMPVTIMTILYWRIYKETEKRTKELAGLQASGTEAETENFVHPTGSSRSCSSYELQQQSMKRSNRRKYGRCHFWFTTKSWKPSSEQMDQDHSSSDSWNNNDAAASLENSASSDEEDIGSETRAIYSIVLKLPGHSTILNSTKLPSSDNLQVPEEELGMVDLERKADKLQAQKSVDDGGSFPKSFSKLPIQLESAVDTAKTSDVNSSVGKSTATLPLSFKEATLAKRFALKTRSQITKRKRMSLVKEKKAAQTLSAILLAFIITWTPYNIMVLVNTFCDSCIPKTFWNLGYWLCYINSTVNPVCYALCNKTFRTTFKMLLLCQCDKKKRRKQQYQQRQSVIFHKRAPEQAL

Consider `O=C(c1ccc(CCNC[C@H](O)c2ccc(O)c3[nH]c(=O)ccc23)cc1)N1CCN(C(=O)c2ccc(COc3cccc([C@](O)(C(=O)OCC4CCN(Cc5ccccc5)CC4)c4ccccc4)c3)cc2)CC1` [Compound 118, (1-benzylpiperidin-4-yl)methyl (S)-2-hydroxy-2-(3-((4-(4-(4-(2-(((R)-2-hydroxy-2-(8-hydroxy-2-oxo-1,2-dihydroquinolin-5-yl)ethyl)amino)ethyl)benzoyl)piperazine-1-carbonyl)benzyl)oxy)phenyl)-2-phenylacetate], for which the IC50 in experiment [1] was less than 0.3 nM; in experiment [2] it was 0.3 to 3 nM.
For `O=C(c1ccc(COc2cccc([C@](O)(C(=O)OCC3CCN(Cc4ccccc4)CC3)c3ccccc3)c2)cc1)N1CCC2(CC1)CN(C(=O)c1ccc(CCNC[C@H](O)c3ccc(O)c4[nH]c(=O)ccc34)cc1)C2` [Compound 119, (1-benzylpiperidin-4-yl)methyl (S)-2-hydroxy-2-(3-((4-(2-(4-(2-(((R)-2-hydroxy-2-(8-hydroxy-2-oxo-1,2-dihydroquinolin-5-yl)ethyl)amino)ethyl)benzoyl)-2,7-diazaspiro[3.5]nonane-7-carbonyl)benzyl)oxy)phenyl)-2-phenylacetate], the IC50 is less than 0.3 nM in experiment [1] and 0.3 to 3 nM in experiment [2].
Turning to `O=C(c1ccc(CCNC[C@H](O)c2ccc(O)c3[nH]c(=O)ccc23)cc1)N1CCCC2(C1)CN(C(=O)c1ccc(COc3cccc([C@](O)(C(=O)OCC4CCN(Cc5ccccc5)CC4)c4ccccc4)c3)cc1)C2` [Compound 120, (1-benzylpiperidin-4-yl)methyl (S)-2-hydroxy-2-(3-((4-(6-(4-(2-(((R)-2-hydroxy-2-(8-hydroxy-2-oxo-1,2-dihydroquinolin-5-yl)ethyl)amino)ethyl)benzoyl)-2,6-diazaspiro[3.5]nonane-2-carbonyl)benzyl)oxy)phenyl)-2-phenylacetate], the IC50 in experiment [1] and in experiment [2] was less than 0.3 nM each time.
Consider `O=C(c1ccc(CCNC[C@H](O)c2ccc(O)c3[nH]c(=O)ccc23)cc1)N1CCC2(CC1)CN(C(=O)c1ccc(COc3cccc([C@](O)(C(=O)OCC4CCN(Cc5ccccc5)CC4)c4ccccc4)c3)cc1)CCO2` [Compound 121, (1-benzylpiperidin-4-yl)methyl (S)-2-hydroxy-2-(3-((4-(9-(4-(2-(((R)-2-hydroxy-2-(8-hydroxy-2-oxo-1,2-dihydroquinolin-5-yl)ethyl)amino)ethyl)benzoyl)-1-oxa-4,9-diazaspiro[5.5]undecane-4-carbonyl)benzyl)oxy)phenyl)-2-phenylacetate], for which the IC50 in experiment [1] and in experiment [2] was less than 0.3 nM in each case.
On to `O=C(c1ccc(CCNC[C@H](O)c2ccc(O)c3[nH]c(=O)ccc23)cc1)N1CCC2(CCCN(C(=O)c3ccc(COc4cccc([C@](O)(C(=O)OCC5CCN(Cc6ccccc6)CC5)c5ccccc5)c4)cc3)C2)CC1` [Compound 122, (1-benzylpiperidin-4-yl)methyl (S)-2-hydroxy-2-(3-((4-(9-(4-(2-(((R)-2-hydroxy-2-(8-hydroxy-2-oxo-1,2-dihydroquinolin-5-yl)ethyl)amino)ethyl)benzoyl)-2,9-diazaspiro[5.5]undecane-2-carbonyl)benzyl)oxy)phenyl)-2-phenylacetate], for which the IC50 in experiment [1] is 0.3 to 3 nM; in experiment [2], more than 3 nM.
Consider `O=C(N[C@H]1C[C@H](NC(=O)c2ccc(COc3cccc([C@](O)(C(=O)OCC4CCN(Cc5ccccc5)CC4)c4ccccc4)c3)cc2)C1)c1ccc(CNC[C@H](O)c2ccc(O)c3[nH]c(=O)ccc23)cc1` [Compound 123, (1-benzylpiperidin-4-yl)methyl (S)-2-hydroxy-2-(3-((4-(((1R,3S)-3-(4-((((R)-2-hydroxy-2-(8-hydroxy-2-oxo-1,2-dihydroquinolin-5-yl)ethyl)amino)methyl)benzamido)cyclobutyl)carbamoyl)benzyl)oxy)phenyl)-2-phenylacetate], for which the IC50 in experiment [1] and in experiment [2] was 0.3 to 3 nM throughout.
On to `COc1cc(C(=O)N[C@H]2C[C@H](NC(=O)c3ccc(COc4cccc([C@](O)(C(=O)OCC5CCN(Cc6ccccc6)CC5)c5ccccc5)c4)cc3)C2)ccc1CNC[C@H](O)c1ccc(O)c2[nH]c(=O)ccc12` [Compound 124, (1-benzylpiperidin-4-yl)methyl (S)-2-hydroxy-2-(3-((4-(((1R,3S)-3-(4-((((R)-2-hydroxy-2-(8-hydroxy-2-oxo-1,2-dihydroquinolin-5-yl)ethyl)amino)methyl)-3-methoxybenzamido)cyclobutyl)carbamoyl)benzyl)oxy)phenyl)-2-phenylacetate], for which the IC50 in experiment [1] and in experiment [2] was 0.3 to 3 nM throughout.
Take `O=C(NCCNC(=O)c1ccc(COc2cccc([C@](O)(C(=O)OCC3CCN(Cc4ccccc4)CC3)c3ccccc3)c2)cc1)c1ccc(CNC[C@H](O)c2ccc(O)c3[nH]c(=O)ccc23)cc1` [Compound 125, (1-benzylpiperidin-4-yl)methyl (S)-2-hydroxy-2-(3-((4-((2-(4-((((R)-2-hydroxy-2-(8-hydroxy-2-oxo-1,2-dihydroquinolin-5-yl)ethyl)amino)methyl)benzamido)ethyl)carbamoyl)benzyl)oxy)phenyl)-2-phenylacetate]: the IC50 in experiment [1] and in experiment [2] was 0.3 to 3 nM in each case.
For `COc1cc(C(=O)NCCNC(=O)c2ccc(COc3cccc([C@](O)(C(=O)OCC4CCN(Cc5ccccc5)CC4)c4ccccc4)c3)cc2)ccc1CNC[C@H](O)c1ccc(O)c2[nH]c(=O)ccc12` [Compound 126, (1-benzylpiperidin-4-yl)methyl (S)-2-hydroxy-2-(3-((4-((2-(4-((((R)-2-hydroxy-2-(8-hydroxy-2-oxo-1,2-dihydroquinolin-5-yl)ethyl)amino)methyl)-3-methoxybenzamido)ethyl)carbamoyl)benzyl)oxy)phenyl)-2-phenylacetate], the IC50 in experiment [1] and in experiment [2] was 0.3 to 3 nM throughout.
As to `O=C(COc1cccc([C@](O)(C(=O)OCC2CCN(Cc3ccccc3)CC2)c2ccccc2)c1)N[C@H]1C[C@H](NC(=O)c2ccc(CNC[C@H](O)c3ccc(O)c4[nH]c(=O)ccc34)c(O)c2)C1` [Compound 127, (1-Benzylpiperidin-4-yl)methyl (S)-2-hydroxy-2-(3-(2-(((1R,3S)-3-(3-hydroxy-4-((((R)-2-hydroxy-2-(8-hydroxy-2-oxo-1,2-dihydroquinolin-5-yl)ethyl)amino)methyl)-benzamido)cyclobutyl)amino)-2-oxoethoxy)phenyl)-2-phenylacetate], the IC50 in experiment [1] and in experiment [2] was less than 0.3 nM in each case.
Take `O=C(COc1cccc([C@](O)(C(=O)OCC2CCN(Cc3ccccc3)CC2)c2ccccc2)c1)N[C@H]1C[C@H](NC(=O)c2ccc(CNC[C@H](O)c3ccc(O)c4[nH]c(=O)ccc34)cc2F)C1` [Compound 128, (S)-(1-benzylpiperidin-4-yl)methyl 2-(3-(2-(((1R,3S)-3-(2-fluoro-4-((((R)-2-hydroxy-2-(8-hydroxy-2-oxo-1,2-dihydroquinolin-5-yl)ethyl)amino)methyl)benzamido)cyclobutyl)amino)-2-oxoethoxy)phenyl)-2-hydroxy-2-phenylacetate]: the IC50 in experiment [1] is 0.3 to 3 nM; in experiment [2], less than 0.3 nM.
Turning to `COc1cc(CNC[C@H](O)c2ccc(O)c3[nH]c(=O)ccc23)ccc1C(=O)N[C@H]1C[C@H](NC(=O)COc2cccc([C@](O)(C(=O)OCC3CCN(Cc4ccccc4)CC3)c3ccccc3)c2)C1` [Compound 130, (S)-(1-benzylpiperidin-4-yl)methyl 2-hydroxy-2-(3-(2-(((1R,3S)-3-(4-((((R)-2-hydroxy-2-(8-hydroxy-2-oxo-1,2-dihydroquinolin-5-yl)ethyl)amino)methyl)-2-methoxybenzamido)cyclobutyl)amino)-2-oxoethoxy)phenyl)-2-phenylacetate], the IC50 in experiment [1] and in experiment [2] was 0.3 to 3 nM each time.
For `COc1cc(C(=O)N[C@H]2C[C@H](NC(=O)COc3cccc([C@](O)(C(=O)OCC4CCN(Cc5ccccc5)CC4)c4ccccc4)c3)C2)ccc1CNC[C@H](O)c1ccc(O)c2[nH]c(=O)ccc12` [Compound 131, (S)-(1-benzylpiperidin-4-yl)methyl 2-hydroxy-2-(3-(2-(((1R,3S)-3-(4-((((R)-2-hydroxy-2-(8-hydroxy-2-oxo-1,2-dihydroquinolin-5-yl)ethyl)amino)methyl)-3-methoxybenzamido)cyclobutyl)amino)-2-oxoethoxy)phenyl)-2-phenylacetate], the figures for the IC50 in experiment [1] and in experiment [2] were 0.3 to 3 nM and less than 0.3 nM, respectively.
For the molecule `O=C(COc1cccc([C@](O)(C(=O)OCC2CCN(Cc3ccccc3)CC2)c2ccccc2)c1)N[C@H]1C[C@H](NC(=O)c2ccc(CNC[C@H](O)c3ccc(O)c4[nH]c(=O)ccc34)c(F)c2)C1` [Compound 132, (1-benzylpiperidin-4-yl)methyl (S)-2-(3-(2-(((1R,3S)-3-(3-fluoro-4-((((R)-2-hydroxy-2-(8-hydroxy-2-oxo-1,2-dihydroquinolin-5-yl)ethyl)amino)methyl)benzamido)cyclobutyl)amino)-2-oxoethoxy)phenyl)-2-hydroxy-2-phenylacetate], the IC50 in experiment [1] was 0.3 to 3 nM; in experiment [2], less than 0.3 nM.
Turning to `O=C(COc1cccc([C@](O)(C(=O)OCC2CCN(Cc3ccccc3)CC2)c2ccccc2)c1)N[C@H]1C[C@H](NC(=O)c2ccc(CNC[C@H](O)c3ccc(O)c4[nH]c(=O)ccc34)cc2Cl)C1` [Compound 133, (1-benzylpiperidin-4-yl)methyl (S)-2-(3-(2-(((1R,3S)-3-(2-chloro-4-((((R)-2-hydroxy-2-(8-hydroxy-2-oxo-1,2-dihydroquinolin-5-yl)ethyl)amino)methyl)benzamido)cyclobutyl)amino)-2-oxoethoxy)phenyl)-2-hydroxy-2-phenylacetate], the IC50 in experiment [1] and in experiment [2] was less than 0.3 nM throughout.
In the case of `O=C(COc1cccc([C@](O)(C(=O)OCC2CCN(Cc3ccccc3)CC2)c2ccccc2)c1)N[C@H]1C[C@H](NC(=O)c2ccc(CNC[C@H](O)c3ccc(O)c4[nH]c(=O)ccc34)c(F)c2F)C1` [Compound 134, (1-benzylpiperidin-4-yl)methyl (S)-2-(3-(2-(((1R,3S)-3-(2,3-difluoro-4-((((R)-2-hydroxy-2-(8-hydroxy-2-oxo-1,2-dihydroquinolin-5-yl)ethyl)amino)methyl)benzamido)cyclobutyl)amino)-2-oxoethoxy)phenyl)-2-hydroxy-2-phenylacetate], the IC50 in experiment [1] was 0.3 to 3 nM; in experiment [2], less than 0.3 nM.

The record behind these values is patent US9579314B2 (priority 2015, dated 2017).
